Source: ChEMBL document CHEMBL3352037, “Antifungal terpenoids from Hyalis argentea var. latisquama” (2014)
≈ marks a conversion by molar mass, not a printed value. Values belong to the compound of their own block, whether it stands above or below them. Calls of active or inactive are those of the source. No cut-off for these calls is given here.

Key:
[1] = test system: Cryptococcus neoformans; test: Antifungal activity against Cryptococcus neoformans ATCC 32264 assessed as microbial growth inhibition at 250 ug/mL after 48 hrs broth microdilution method; format: functional, organism-based
[2] = test system: Candida albicans; test: Antifungal activity against Candida albicans ATCC 10231 assessed as microbial growth inhibition at 250 ug/mL after 48 hrs broth microdilution method; format: functional, organism-based
[3] = test system: Candida albicans; test: Antifungal activity against Candida albicans ATCC 10231 by bioautography TLC plate assay based MTT method; format: functional, organism-based
[4] = test system: Cryptococcus neoformans; test: Antifungal activity against Cryptococcus neoformans ATCC 32264 by bioautography TLC plate assay based MTT method; format: functional, organism-based
[5] = test system: Candida albicans; test: Antifungal activity against Candida albicans ATCC 10231 assessed as microbial growth inhibition after 48 hrs broth microdilution method; format: functional, organism-based
[6] = test system: Cryptococcus neoformans; test: Antifungal activity against Cryptococcus neoformans ATCC 32264 assessed as microbial growth inhibition after 48 hrs broth microdilution method; format: functional
[7] = test system: Candida albicans; test: Antifungal activity against Candida albicans ATCC 10231 assessed as microbial growth inhibition at 15.6 ug/mL after 48 hrs broth microdilution method; format: functional; conditions: ATCC 10231, 48 h, read-out: GI
[8] = test system: Candida albicans; test: Antifungal activity against Candida albicans ATCC 10231 assessed as microbial growth inhibition at 125 ug/mL after 48 hrs broth microdilution method; format: functional; conditions: ATCC 10231, 48 h, read-out: GI
[9] = test system: Cryptococcus neoformans; test: Antifungal activity against Cryptococcus neoformans ATCC 32264 assessed as microbial growth inhibition at 62.5 ug/mL after 48 hrs broth microdilution method; format: functional; conditions: ATCC 32264, 48 h, read-out: GI
[10] = test system: Candida albicans; test: Antifungal activity against Candida albicans ATCC 10231 assessed as microbial growth inhibition at 62.5 ug/mL after 48 hrs broth microdilution method; format: functional; conditions: ATCC 10231, 48 h, read-out: GI
[11] = test system: Cryptococcus neoformans; test: Antifungal activity against Cryptococcus neoformans ATCC 32264 assessed as microbial growth inhibition at 31.25 ug/mL after 48 hrs broth microdilution method; format: functional; conditions: ATCC 32264, 48 h, read-out: GI
[12] = test system: Cryptococcus neoformans; test: Antifungal activity against Cryptococcus neoformans ATCC 32264 assessed as microbial growth inhibition at 15.6 ug/mL after 48 hrs broth microdilution method; format: functional; conditions: ATCC 32264, 48 h, read-out: GI
[13] = test system: Cryptococcus neoformans; test: Antifungal activity against Cryptococcus neoformans ATCC 32264 assessed as microbial growth inhibition at 50 to 300 ug/mL after 48 hrs broth microdilution method; format: functional, organism-based
[14] = test system: Candida albicans; test: Antifungal activity against Candida albicans ATCC 10231 assessed as microbial growth inhibition at 50 to 300 ug/mL after 48 hrs broth microdilution method; format: functional, organism-based
[15] = test system: Candida albicans; test: Antifungal activity against Candida albicans ATCC 10231 assessed as microbial growth inhibition at => 125 ug/mL after 48 hrs broth microdilution method; format: functional
[16] = test system: Cryptococcus neoformans; test: Antifungal activity against Cryptococcus neoformans ATCC 32264 assessed as microbial growth inhibition at => 125 ug/mL after 48 hrs broth microdilution method; format: functional

Compound: C=C1[C@H]2C[C@H]2[C@]2(C)[C@@H]3O[C@@]34OC(=O)C(COC(C)=O)=C4C[C@@H]12
growth inhibition (GI) [1]: inactive
growth inhibition (GI) [2]: inactive
growth inhibition (GI) [3]: Active
growth inhibition (GI) [4]: Active

Compound: C=C1[C@@H]2[C@H]3OC(=O)[C@@H](C)[C@@H]3CCC(=C)[C@@H]2C[C@@H]1O
growth inhibition (GI) [5]: Active
growth inhibition (GI) [6]: Active
growth inhibition (GI) [3]: Active
growth inhibition (GI) [4]: Active

Compound: C=C1[C@H]2C[C@H]2[C@]2(C)C=C3OC(=O)C(COC(C)=O)=C3C[C@@H]12
inhibition of growth at 15.6 µg/mL [7]: 50%
inhibition of growth at 125 µg/mL [8]: 100%
growth inhibition (GI) [3]: Active
inhibition of growth at 62.5 µg/mL [9]: 100%
growth inhibition (GI) [4]: Active
inhibition of growth at 62.5 µg/mL [10]: 80%
inhibition of growth at 31.25 µg/mL [11]: 80%
inhibition of growth at 15.6 µg/mL [12]: 50%

Compound: C=C1[C@H]2C[C@H]2[C@]2(C)C[C@@H]3OC(=O)C(CO)=C3C[C@@H]12
growth inhibition (GI) [13]: inactive
growth inhibition (GI) [14]: inactive

MIC ([6]; ATCC 32264, 48 h): 125 µg/mL (≈ 507 µM)
Compound: C=C1[C@@H]2[C@H]3OC(=O)C(=C)[C@@H]3CCC(=C)[C@@H]2C[C@@H]1O [ZALUZANIN C]
growth inhibition (GI) [5]: Active
growth inhibition (GI) [3]: Active

Compound: C=C1[C@H]2C[C@H]2[C@]2(C)C=C3OC(=O)C(CO)=C3C[C@@H]12
growth inhibition (GI) [15]: 50%
growth inhibition (GI) [3]: Active
growth inhibition (GI) [4]: Active
growth inhibition (GI) [16]: 50%
